# Activity calls are given as the source filed them. No cut-off for these calls is given here.
# Tests used:
# [1] = in vivo; settings: Sprague-Dawley, rat, iv, 1 mg/kg
# [2] = tested on: Leukotriene A4 hydrolase (Homo sapiens); test: Inhibition of LTB4 in calcium ionophore A23187-stimulated human PBMC cells at 1 uM pretreated with compound for 15 mins followed by calcium ionophore A23187 induction and measured after 2 hrs by LC-MS/MS analysis; settings: time 135.0 min
# [3] = Oral bioavailability in Wistar rat at 30 mg/kg measured upto 24 hrs by LC-MS/MS analysis; format: ADME, organism-based; settings: in vivo
# [4] = Clearance in dog at 1 mg/kg, iv measured upto 24 hrs by LC-MS/MS analysis; format: ADME, organism-based, Canis lupus familiaris; settings: in vivo
# [5] = AUC (0 to infinity) in C57BL/6 mouse at 3 mg/kg, po measured upto 24 hrs by LC-MS/MS analysis; format: ADME, organism-based; parameters: time < 24 hrs, dose 3 mg/kg, route po; settings: in vivo
# [6] = Metabolic stability in human hepatocyte assessed as intrinsic clearance; format: ADME, cell-based; settings: hepatocytes
# [7] = in vitro; settings: mouse, liver microsomes
# [8] = Solubility of compound in FeSSIF at pH 6.8; format: physicochemical
# [9] = Inhibition of neutrophil influx in arachidonic acid-stimulated skin inflammation 129S2/SvPasCrl mouse model assessed as effect on MPO level in skin at 0.03 mg/kg, po pretreated with compound for 4 hrs followed by arachidonic acid stimulation and measured after 1 hr; format: functional; settings: time 5 hrs
# [10] = in vivo; settings: C57BL/6, mouse, in vivo, po, 10 mg/kg
# [11] = AUC (0 to infinity) in Wistar rat at 30 mg/kg, po measured upto 24 hrs by LC-MS/MS analysis; format: ADME, organism-based; parameters: dose 30 mg/kg, time < 24 hrs, route po; settings: in vivo
# [12] = Half life in C57BL/6 mouse at 1 mg/kg, iv measured upto 24 hrs by LC-MS/MS analysis; format: ADME, organism-based; settings: in vivo
# [13] = Cmax in Wistar rat at 3 mg/kg, po measured upto 24 hrs by LC-MS/MS analysis; format: ADME, organism-based; parameters: dose 3 mg/kg, time < 24 hrs, route po; settings: in vivo
# [14] = Oral bioavailability in Wistar rat at 3 mg/kg measured upto 24 hrs by LC-MS/MS analysis; format: ADME, organism-based; settings: in vivo
# [15] = Cmax in C57BL/6 mouse at 3 mg/kg, po measured upto 24 hrs by LC-MS/MS analysis; format: ADME, organism-based; parameters: time < 24 hrs, dose 3 mg/kg, route po; settings: in vivo
# [16] = Cmax in Wistar rat at 30 mg/kg, po measured upto 24 hrs by LC-MS/MS analysis; format: ADME, organism-based; parameters: time < 24 hrs, dose 30 mg/kg, route po; settings: in vivo
# [17] = Volume of distribution at steady state in dog at 1 mg/kg, iv measured upto 24 hrs by LC-MS/MS analysis; format: ADME, organism-based, Canis lupus familiaris; settings: in vivo, read-out: Vdss
# [18] = AUC (0 to infinity) in Wistar rat at 3 mg/kg, po measured upto 24 hrs by LC-MS/MS analysis; format: ADME, organism-based; parameters: time < 24 hrs, dose 3 mg/kg, route po; settings: in vivo
# [19] = Half life in dog at 1 mg/kg, iv measured upto 24 hrs by LC-MS/MS analysis; format: ADME, organism-based, Canis lupus familiaris; settings: in vivo
# [20] = Metabolic stability in mouse hepatocyte assessed as intrinsic clearance; format: ADME, cell-based; settings: hepatocytes
# [21] = MRT in C57BL/6 mouse at 1 mg/kg, iv measured upto 24 hrs by LC-MS/MS analysis; format: ADME, organism-based; settings: in vivo
# [22] = Drug concentration in blood of arachidonic acid-induced skin inflammation 129S2/SvPasCrl mouse model at 3 mg/kg, po measured after 4 hrs; format: ADME, organism-based; settings: read-out: Ct
# [23] = Metabolic stability in rat hepatocyte assessed as intrinsic clearance; format: ADME, cell-based; settings: hepatocytes
# [24] = target: T1, Leukotriene A-4 hydrolase (Homo sapiens, UniProt P09960); test: Inhibition of LTA4H (unknown origin) using Arg-AMC as substrate preincubated with compound for 15 mins followed by substrate addition and measured after every 10 mins for 300 mins by fluorescence based assay
# T1 sequence (P09960 whole entry): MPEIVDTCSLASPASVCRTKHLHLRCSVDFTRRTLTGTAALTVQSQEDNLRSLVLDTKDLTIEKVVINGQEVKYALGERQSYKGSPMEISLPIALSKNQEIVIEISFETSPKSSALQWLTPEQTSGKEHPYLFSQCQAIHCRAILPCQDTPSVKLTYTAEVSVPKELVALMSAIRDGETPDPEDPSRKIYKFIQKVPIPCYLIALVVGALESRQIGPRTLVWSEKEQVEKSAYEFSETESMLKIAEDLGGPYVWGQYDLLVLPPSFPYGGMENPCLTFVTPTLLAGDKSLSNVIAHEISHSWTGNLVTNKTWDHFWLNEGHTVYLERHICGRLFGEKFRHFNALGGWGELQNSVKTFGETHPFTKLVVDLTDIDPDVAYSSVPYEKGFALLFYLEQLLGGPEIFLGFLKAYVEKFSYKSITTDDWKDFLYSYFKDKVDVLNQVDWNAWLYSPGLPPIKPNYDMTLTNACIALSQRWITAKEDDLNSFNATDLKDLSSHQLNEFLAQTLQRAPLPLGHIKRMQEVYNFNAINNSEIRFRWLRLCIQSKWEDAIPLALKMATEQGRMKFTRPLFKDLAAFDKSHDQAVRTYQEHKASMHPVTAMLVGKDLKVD
# [25] = tested on: Mus musculus; test: Antiarthritic activity in KRN passive serum-induced arthritis C57BL/6 mouse model assessed as reduction in paw swelling at 0.1 to 10 mg/kg, po bid measured on day 7 at 2 hrs after first dose and 14 hrs after second dose; format: functional, organism-based; settings: dose 0.1-10 mg/kg, time 7.0 day
# [26] = tested on: Mus musculus; test: Antiarthritic activity in KRN passive serum-induced arthritis C57BL/6 mouse model assessed as reduction in tissue destruction at 0.1 to 10 mg/kg, po bid measured on day 7 at 2 hrs after first dose and 14 hrs after second dose; format: functional, organism-based; settings: dose 0.1-10 mg/kg, time 7.0 day
# [27] = physchem; settings: octanol/water, pH 7.4
# [28] = Inhibition of calcium ionophore A23187-stimulated LTB4 release in C57BL/6 mouse model at 10 mg/kg, po bid measured after 2 hrs; format: functional
# [29] = in vivo; settings: Sprague-Dawley, rat, iv, 1 mg/kg; remark: listed apart in the source
# [30] = Solubility of compound in FaSSIF at pH 6.8; format: physicochemical
# [31] = in vivo; settings: Sprague-Dawley, rat, iv, 1 mg/kg; remark: listed apart in the source
# [32] = Oral bioavailability in C57BL/6 mouse at 3 mg/kg measured upto 24 hrs by LC-MS/MS analysis; format: ADME, organism-based; settings: in vivo
# [33] = Inhibition of calcium ionophore A23187-stimulated LTB4 release in C57BL/6 mouse model at 10 mg/kg, po bid measured after 24 hrs; format: functional
# [34] = target: Voltage-gated inwardly rectifying potassium channel KCNH2 (Homo sapiens, UniProt Q12809)
# [35] = in vivo; settings: Sprague-Dawley, rat, iv, 1 mg/kg; remark: listed apart in the source
# [36] = Oral bioavailability in dog at 3 mg/kg measured upto 24 hrs by LC-MS/MS analysis; format: ADME, organism-based, Canis lupus familiaris; settings: in vivo
# [37] = in vitro; settings: rat, liver microsomes
# Chain of Voltage-gated inwardly rectifying potassium channel KCNH2 (Q12809 whole entry): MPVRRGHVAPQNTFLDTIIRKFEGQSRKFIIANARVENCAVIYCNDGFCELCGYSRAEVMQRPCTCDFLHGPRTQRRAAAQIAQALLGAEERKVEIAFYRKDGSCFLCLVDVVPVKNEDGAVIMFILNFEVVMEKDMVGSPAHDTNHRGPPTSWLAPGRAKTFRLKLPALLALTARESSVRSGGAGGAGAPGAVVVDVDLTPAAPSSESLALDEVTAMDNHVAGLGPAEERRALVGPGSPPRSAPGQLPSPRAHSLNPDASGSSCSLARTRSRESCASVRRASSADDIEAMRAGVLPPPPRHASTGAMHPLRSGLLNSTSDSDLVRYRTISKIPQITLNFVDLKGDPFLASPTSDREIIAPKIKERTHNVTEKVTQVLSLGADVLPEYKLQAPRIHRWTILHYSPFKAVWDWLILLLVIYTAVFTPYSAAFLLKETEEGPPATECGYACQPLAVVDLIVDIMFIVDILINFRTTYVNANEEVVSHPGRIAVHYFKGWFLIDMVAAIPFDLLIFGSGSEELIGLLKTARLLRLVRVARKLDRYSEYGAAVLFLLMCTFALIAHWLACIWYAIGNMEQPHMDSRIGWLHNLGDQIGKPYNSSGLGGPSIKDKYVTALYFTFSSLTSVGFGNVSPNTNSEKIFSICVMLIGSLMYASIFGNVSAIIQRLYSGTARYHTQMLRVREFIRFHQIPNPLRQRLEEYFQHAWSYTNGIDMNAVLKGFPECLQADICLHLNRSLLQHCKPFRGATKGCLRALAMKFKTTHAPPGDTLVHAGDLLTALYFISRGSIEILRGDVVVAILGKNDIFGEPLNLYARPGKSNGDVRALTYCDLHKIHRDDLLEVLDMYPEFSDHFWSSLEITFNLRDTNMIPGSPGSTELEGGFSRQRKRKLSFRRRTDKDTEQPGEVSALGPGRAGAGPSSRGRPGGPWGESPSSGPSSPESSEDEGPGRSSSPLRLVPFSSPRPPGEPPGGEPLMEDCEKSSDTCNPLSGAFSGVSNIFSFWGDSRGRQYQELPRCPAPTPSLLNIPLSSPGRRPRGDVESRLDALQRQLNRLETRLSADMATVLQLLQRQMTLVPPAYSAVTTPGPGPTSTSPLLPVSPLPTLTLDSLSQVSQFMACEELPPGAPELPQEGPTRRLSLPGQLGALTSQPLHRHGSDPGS
smiles,measurement,setting,value
N[C@H](CO)Cn1ccc(-c2ccc(Oc3ncc(-c4cc[nH]n4)cc3F)cc2)n1,concentration at 24 h,[1],32 nM
same,inhibition,[2],100%
same,bioavailability,[3],46%
same,clearance,[4],2.2 mL/min/kg
same,AUC(0-inf),[5],5.51 µM·h
same,CLH,[6],< 4 µL/min/mg
same,microsomal CLint,[7],90 µL/min/mg
same,solubility,[8],> 2000 µg/mL
same,inhibition in vivo at 0.03 mg/kg,[9],52%
same,concentration at 24 h,[10],218 nM
same,AUC(0-inf),[11],59.2 µM·h
same,half-life,[12],3.4 h
same,Cmax,[13],351 nM
same,bioavailability,[14],39%
same,Cmax,[15],443 nM
same,Cmax,[16],5490 nM
same,Vd,[17],7 L/kg
same,AUC(0-inf),[18],4.99 µM·h
same,half-life,[19],40 h
same,CLH,[20],6 µL/min/mg
same,MRT,[21],3.3 h
same,concentration at 4 h,[22],367 nM
same,CLH,[23],20 µL/min/mg
same,IC50,[24],< 0.003 µM
same,Activity,[25],Active
same,Activity,[26],Active
same,logD,[27],2
same,inhibition in vivo at 10 mg/kg,[28],95%
same,Cmax,[29],298 nM
same,solubility,[30],> 2000 µg/mL
same,MRT,[31],4.6 h
same,bioavailability,[32],32%
same,inhibition in vivo at 10 mg/kg,[33],93%
same,IC50,[34],> 30 µM
same,clearance,[35],20 mL/min/kg
same,bioavailability,[36],39%
same,microsomal CLint,[37],179 µL/min/mg

# From ChEMBL document CHEMBL5375967 (J Med Chem, 2023)
